For 16 compounds, client protein degradation results are on record in PubChem BioAssay AID686974 (The Scripps Research Institute Molecular Screening Center, 2013).

In test [1] the target is RAC-alpha serine/threonine-protein kinase (Homo sapiens) (UniProt P31749). The test is described as follows: HSP90 client depletion in MCF7 cells – cell-based, Western blot, mechanism study, late-stage follow-up (AID 686974). The following applies: Her2/AKT client degradation, 24 h, AKT, active compounds read high. For orientation: Immunoblotting shows a protein as a band on a membrane.

Test [2] addresses Receptor tyrosine-protein kinase erbB-2 (Homo sapiens) (UniProt P04626). The test is described as above. As to conditions: Her2/AKT client degradation, 24 h, active compounds read high.

The structures appear in SMILES notation. Activity calls are given as the source filed them.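 The calls were made as follows: active = client protein degradation above 50% for Her2 or AKT on Western blot; inactive = client protein degradation below 10%.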

Receptor tyrosine-protein kinase erbB-2 (Homo sapiens), sequence (P04626 whole entry, looked up): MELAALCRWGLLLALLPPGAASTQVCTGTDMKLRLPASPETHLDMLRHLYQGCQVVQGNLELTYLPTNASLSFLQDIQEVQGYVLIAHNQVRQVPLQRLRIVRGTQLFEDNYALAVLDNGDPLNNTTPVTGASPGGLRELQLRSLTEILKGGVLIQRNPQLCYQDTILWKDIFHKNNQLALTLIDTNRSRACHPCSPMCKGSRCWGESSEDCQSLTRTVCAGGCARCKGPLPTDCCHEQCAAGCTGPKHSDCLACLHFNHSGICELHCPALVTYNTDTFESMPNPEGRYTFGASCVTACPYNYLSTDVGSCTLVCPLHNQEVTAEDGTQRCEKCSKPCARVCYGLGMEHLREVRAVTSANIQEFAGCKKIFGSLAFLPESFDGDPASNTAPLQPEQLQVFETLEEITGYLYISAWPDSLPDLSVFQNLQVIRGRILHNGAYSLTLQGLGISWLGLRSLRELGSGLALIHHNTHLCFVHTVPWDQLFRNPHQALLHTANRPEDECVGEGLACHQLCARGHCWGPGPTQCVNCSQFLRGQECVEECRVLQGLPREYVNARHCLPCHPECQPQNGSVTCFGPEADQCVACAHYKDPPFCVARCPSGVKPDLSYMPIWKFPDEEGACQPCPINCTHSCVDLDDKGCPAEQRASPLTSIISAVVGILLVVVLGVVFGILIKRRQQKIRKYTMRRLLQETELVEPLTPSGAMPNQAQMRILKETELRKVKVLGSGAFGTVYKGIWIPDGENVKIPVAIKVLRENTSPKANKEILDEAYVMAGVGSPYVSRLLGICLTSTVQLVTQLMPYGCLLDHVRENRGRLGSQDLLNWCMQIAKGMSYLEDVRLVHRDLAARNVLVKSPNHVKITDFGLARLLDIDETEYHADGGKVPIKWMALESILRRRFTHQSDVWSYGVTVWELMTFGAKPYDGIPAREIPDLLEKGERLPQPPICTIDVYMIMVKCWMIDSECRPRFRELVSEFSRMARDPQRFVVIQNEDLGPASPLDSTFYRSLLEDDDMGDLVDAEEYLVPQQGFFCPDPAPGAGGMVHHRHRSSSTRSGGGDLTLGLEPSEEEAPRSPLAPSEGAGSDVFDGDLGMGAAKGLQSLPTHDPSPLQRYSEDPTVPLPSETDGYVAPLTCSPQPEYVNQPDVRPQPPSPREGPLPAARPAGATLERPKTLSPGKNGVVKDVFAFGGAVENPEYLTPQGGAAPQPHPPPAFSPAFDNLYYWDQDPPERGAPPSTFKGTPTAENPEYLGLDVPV
RAC-alpha serine/threonine-protein kinase (Homo sapiens), sequence (P31749 whole entry, looked up): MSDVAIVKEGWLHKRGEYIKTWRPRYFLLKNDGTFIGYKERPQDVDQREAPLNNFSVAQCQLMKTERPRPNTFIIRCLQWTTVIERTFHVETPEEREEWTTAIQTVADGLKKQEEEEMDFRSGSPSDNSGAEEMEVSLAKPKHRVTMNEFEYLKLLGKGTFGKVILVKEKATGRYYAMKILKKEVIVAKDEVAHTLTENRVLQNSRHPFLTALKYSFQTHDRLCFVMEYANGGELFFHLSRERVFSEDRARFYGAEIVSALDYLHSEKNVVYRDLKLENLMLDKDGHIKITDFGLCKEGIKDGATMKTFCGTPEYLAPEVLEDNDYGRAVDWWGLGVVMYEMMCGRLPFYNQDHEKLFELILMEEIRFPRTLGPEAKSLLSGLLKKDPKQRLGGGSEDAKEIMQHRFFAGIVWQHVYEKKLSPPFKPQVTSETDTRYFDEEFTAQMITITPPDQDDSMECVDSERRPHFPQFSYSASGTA

As to `O=C(NCc1ccco1)c1coc(=O)c(Br)c1`, the client protein degradation in test [1] (high dose (five times the growth IC50) 24 µM, low dose (half the growth IC50) 2.4 µM) was greater than 50%; in test [2] (Her2, high dose (five times the growth IC50) 24 µM, low dose (half the growth IC50) 2.4 µM), greater than 50%.

Consider `Cc1cccc(NC(=O)c2coc(=O)c(Br)c2)n1`, for which the client protein degradation in test [1] (high dose (five times the growth IC50) 136.5 µM, low dose (half the growth IC50) 13.7 µM) is < 10% (inactive); in test [2] (Her2, high dose (five times the growth IC50) 136.5 µM, low dose (half the growth IC50) 13.7 µM), greater than 50%.

Consider `O=C(NCc1cccnc1)c1coc(=O)c(Br)c1`, for which the client protein degradation in test [1] (high dose (five times the growth IC50) 17.5 µM, low dose (half the growth IC50) 1.8 µM) was < 10% (inactive); in test [2] (Her2, high dose (five times the growth IC50) 17.5 µM, low dose (half the growth IC50) 1.8 µM), greater than 50%.

`COc1ccc(NC(=O)c2coc(=O)c(Br)c2)cc1`: the client protein degradation in test [1] (high dose (five times the growth IC50) 12 µM, low dose (half the growth IC50) 1.2 µM) was greater than 50%; in test [2] (Her2, high dose (five times the growth IC50) 12 µM, low dose (half the growth IC50) 1.2 µM), greater than 50%.

Consider `COc1ccc(NC(=O)c2ccc(NC(=O)c3coc(=O)c(Br)c3)cc2)cc1`, for which the client protein degradation in test [1] (high dose (five times the growth IC50) 60.5 µM, low dose (half the growth IC50) 6.1 µM) is < 10% (inactive); in test [2] (Her2, high dose (five times the growth IC50) 60.5 µM, low dose (half the growth IC50) 6.1 µM), < 10% (inactive).

As to `CC(=O)c1ccc(NC(=O)c2coc(=O)c(Br)c2)cc1`, the client protein degradation is < 10% (inactive) in test [1] (high dose (five times the growth IC50) 53.5 µM, low dose (half the growth IC50) 5.4 µM) and greater than 50% in test [2] (Her2, high dose (five times the growth IC50) 53.5 µM, low dose (half the growth IC50) 5.4 µM).

With `O=C(NCCc1ccc(F)cc1)c1coc(=O)c(Br)c1`, the client protein degradation in test [1] (high dose (five times the growth IC50) 10.5 µM, low dose (half the growth IC50) 1.1 µM) is < 10% (inactive); in test [2] (Her2, high dose (five times the growth IC50) 10.5 µM, low dose (half the growth IC50) 1.1 µM), greater than 50%.

For `O=C(Nc1ccccc1I)c1coc(=O)c(Br)c1`, the client protein degradation in test [1] (high dose (five times the growth IC50) 147 µM, low dose (half the growth IC50) 14.7 µM) is greater than 50%; in test [2] (Her2, high dose (five times the growth IC50) 147 µM, low dose (half the growth IC50) 14.7 µM) it was greater than 50%.

Regarding `Cc1cc(NC(=O)c2coc(=O)c(Br)c2)ccc1C(C)C`, the client protein degradation in test [1] (high dose (five times the growth IC50) 44.5 µM, low dose (half the growth IC50) 4.5 µM) was < 10% (inactive); in test [2] (Her2, high dose (five times the growth IC50) 44.5 µM, low dose (half the growth IC50) 4.5 µM), < 10% (inactive).

Regarding `CC(C)CNC(=O)c1coc(=O)c(Br)c1`, the client protein degradation in test [1] (high dose (five times the growth IC50) 37.5 µM, low dose (half the growth IC50) 3.8 µM) is < 10% (inactive); in test [2] (Her2, high dose (five times the growth IC50) 37.5 µM, low dose (half the growth IC50) 3.8 µM) it was greater than 50%.

In the case of `CCCCCCCCOc1ccc(NC(=O)c2coc(=O)c(Br)c2)cc1`, the client protein degradation in test [1] (high dose (five times the growth IC50) 64.5 µM, low dose (half the growth IC50) 6.5 µM) is < 10% (inactive); in test [2] (Her2, high dose (five times the growth IC50) 64.5 µM, low dose (half the growth IC50) 6.5 µM), greater than 50%.

Take `CC(NC(=O)c1coc(=O)c(Br)c1)C1C2CCC3CC(C2)CC31` (configuration not stated): the client protein degradation in test [1] (high dose (five times the growth IC50) 9 µM, low dose (half the growth IC50) 0.9 µM) was < 10% (inactive); in test [2] (Her2, high dose (five times the growth IC50) 9 µM, low dose (half the growth IC50) 0.9 µM), greater than 50%.

Turning to `O=C(Nc1ccc(F)cc1)c1coc(=O)c(Br)c1`, the client protein degradation in test [1] (high dose (five times the growth IC50) 17 µM, low dose (half the growth IC50) 1.7 µM) was greater than 50%; in test [2] (Her2, high dose (five times the growth IC50) 17 µM, low dose (half the growth IC50) 1.7 µM) it was greater than 50%.

Take `CCCCOc1cccc(NC(=O)c2coc(=O)c(Br)c2)c1`: the client protein degradation in test [1] (high dose (five times the growth IC50) 114 µM, low dose (half the growth IC50) 11.4 µM) was < 10% (inactive); in test [2] (Her2, high dose (five times the growth IC50) 114 µM, low dose (half the growth IC50) 11.4 µM) it was greater than 50%.

On to `CCOc1ccc(-c2nc(CN3CCCCC3CCn3cccn3)c(C)o2)cc1` (configuration not stated), for which the client protein degradation is < 10% (inactive) in test [1] (high dose (five times the growth IC50) 111 µM, low dose (half the growth IC50) 11.1 µM) and < 10% (inactive) in test [2] (Her2, high dose (five times the growth IC50) 111 µM, low dose (half the growth IC50) 11.1 µM).

Turning to `COC(=O)c1ccc2nc(NC(=O)C3CC3)sc2c1`, the client protein degradation in test [1] (high dose (five times the growth IC50) 246 µM, low dose (half the growth IC50) 24.6 µM) was < 10% (inactive); in test [2] (Her2, high dose (five times the growth IC50) 246 µM, low dose (half the growth IC50) 24.6 µM) it was < 10% (inactive).
